# Laboratory results taken from ChEMBL document CHEMBL1136276, “Alpha-fluoro-substituted thalidomide analogues” (Bioorg Med Chem Lett, 2003).
# pIC50: −log10 of the molar value.
# Key:
# [1] = Inhibition of TNF-alpha production in LPS stimulated human PBMC at 360 uM; format: functional
# [2] = Inhibition of TNF-alpha production in LPS stimulated human PBMC; format: functional
pIC50 [2],Structure (SMILES),inhibition at 360 µM [1]
–,O=C1CCC(F)(N2C(=O)c3ccccc3C2=O)C(=O)N1 (stereo not drawn),80%
6.64,Nc1cccc2c1C(=O)N(C1(F)CCC(=O)NC1=O)C2=O (stereo not drawn),–
6.64,Nc1cccc2c1C(=O)N(C1CCC(=O)NC1=O)C2=O (stereo not drawn) [POMALIDOMIDE],–
